≈ marks a conversion by molar mass, not a printed value.
How the values were obtained:
[1] = test system: ANKA strain of P. berghei; assay: Single dose STI in vivo screen in infected mice; set-up: species or system Plasmodium berghei; conditions: for Survival (days) 10 mg/kg po: single 10 mg/kg po in 3% ethanol and 7% Tween 80; for Survival (days) 10 mg/kg po / Survival (days) 10 mg/kg SSV po / Survival (days) 10 mg/kg sc: untreated 6-7 days; for Activity (%) 10 mg/kg po: single 10 mg/kg po in 3% ethanol and 7% Tween 80 on day 1 post-infection; for Activity (%) 10 mg/kg po / Activity (%) 10 mg/kg SSV po / Activity (%) 10 mg/kg sc: percent reduction in parasitemia on day 3; for Survival (days) 10 mg/kg SSV po: single 10 mg/kg po in SSV; for Activity (%) 10 mg/kg SSV po: single 10 mg/kg po in standard suspending vehicle (SSV) on day 1 post-infection; for Survival (days) 10 mg/kg sc: single 10 mg/kg sc in 3% ethanol and 7% Tween 80; for Activity (%) 10 mg/kg sc: single 10 mg/kg sc in 3% ethanol and 7% Tween 80 on day 1 post-infection
[2] = test system: chloroquine-sensitive NF54 strain of P. falciparum; assay: In vitro antimalarial semiautomated microdilution assay ([3H]-hypoxanthine incorporation), NF54 strain; format: cell-based, Plasmodium falciparum; conditions: Plasmodium falciparum, NF54, 72 h, read-out: IC50 (ng/ml) NF54, chloroquine-sensitive NF54 strain, 72 h incubation
Procedure, shortened: (§1)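 Logit regression analysis yields the fifty percent inhibitory concentration. Compounds are tested by semiautomated microdilution on intraerythrocytic parasites drawn from asynchronous stock cultures, measuring [3H]-hypoxanthine incorporation.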

[3] = test system: chloroquine-resistant K1 strain of P. falciparum; assay: In vitro antimalarial semiautomated microdilution assay ([3H]-hypoxanthine incorporation), K1 strain; format: cell-based, Plasmodium falciparum; conditions: Plasmodium falciparum, K1, 72 h, read-out: IC50 (ng/ml) K1, chloroquine-resistant K1 strain, 72 h incubation
Procedure, shortened: as §1

In the case of `Fc1ccc(OC2CCC3(CC2)OOC2(O3)C3CC4CC(C3)CC2C4)cc1` (stereo not drawn) [OZ193], the “Survival (days) 10 mg/kg po” value [1] is reported as 9.3 days, the “Activity (%) 10 mg/kg po” value [1] is reported as 99.75% and the “Survival (days) 10 mg/kg SSV po” value [1] is reported as 8.0 days. For the same molecule, the “Activity (%) 10 mg/kg SSV po” value [1] was 93%, the “Survival (days) 10 mg/kg sc” value [1] was 11.0 days and the “Activity (%) 10 mg/kg sc” value [1] was 99.92%. For the same molecule, the IC50 [2] was 8.3 ng/mL (≈ 0.0222 µM) and the IC50 [3] was 5.5 ng/mL (≈ 0.0147 µM).
For `O=C(O)CCC(=O)N[C@H]1CC[C@]2(CC1)OOC1(O2)C2CC3CC(C2)CC1C3` (stereo partly drawn) [OZ196], the “Survival (days) 10 mg/kg po” value [1] was 6.0 days, the “Activity (%) 10 mg/kg po” value [1] was 10% and the “Survival (days) 10 mg/kg SSV po” value [1] was 5.3 days. For the same molecule, the “Activity (%) 10 mg/kg SSV po” value [1] was 0%, the “Survival (days) 10 mg/kg sc” value [1] was 5.7 days and the “Activity (%) 10 mg/kg sc” value [1] was 17%. For the same molecule, the IC50 [2] was > 10 ng/mL and the IC50 [3] was > 10 ng/mL.
In the case of `O=C(O)c1cccc([C@H]2CC[C@]3(CC2)OOC2(O3)C3CC4CC(C3)CC2C4)c1` (stereo partly drawn) [OZ198], the “Survival (days) 10 mg/kg po” value [1] is reported as 5.7 days, the “Activity (%) 10 mg/kg po” value [1] is reported as 4% and the “Survival (days) 10 mg/kg SSV po” value [1] is reported as 6.0 days. The “Activity (%) 10 mg/kg SSV po” value [1] was 6%, the “Survival (days) 10 mg/kg sc” value [1] was 5.7 days and the “Activity (%) 10 mg/kg sc” value [1] was 6%. For the same molecule, the IC50 [2] was > 10 ng/mL and the IC50 [3] was > 10 ng/mL.
For `CCS(=O)(=O)CCN1CCC2(CC1)OOC1(O2)C2CC3CC(C2)CC1C3` (stereo not drawn) [OZ200, Adamantane-2-spiro-3′-8′-[2′-(ethylsulfonyl)ethyl]-1′,2′,4′-trioxa-8′-azaspiro[4.5]decane], the “Survival (days) 10 mg/kg po” value [1] was 7.0 days, the “Activity (%) 10 mg/kg po” value [1] was 81% and the “Survival (days) 10 mg/kg SSV po” value [1] was 7.3 days. For the same molecule, the “Activity (%) 10 mg/kg SSV po” value [1] was 78%, the “Survival (days) 10 mg/kg sc” value [1] was 8.0 days and the “Activity (%) 10 mg/kg sc” value [1] was 92%. The IC50 [2] was 2.9 ng/mL (≈ 0.00752 µM) and the IC50 [3] was 1 ng/mL (≈ 0.00259 µM).
With `Fc1ccc(NC2CCC3(CC2)OOC2(O3)C3CC4CC(C3)CC2C4)cc1` (stereo not drawn) [OZ201] the “Survival (days) 10 mg/kg po” value [1] was 13 days, the “Activity (%) 10 mg/kg po” value [1] was 100/100/100% and the “Survival (days) 10 mg/kg SSV po” value [1] was 10.3 days. The “Activity (%) 10 mg/kg SSV po” value [1] was 100/100/100%, the “Survival (days) 10 mg/kg sc” value [1] was 25 days and the “Activity (%) 10 mg/kg sc” value [1] was 100/100/100%. It also gave an IC50 [2] of 3.1 ng/mL (≈ 0.0083 µM) and an IC50 [3] of 2 ng/mL (≈ 0.00536 µM).
For `CC(=O)OC(C)(C)C(=O)N[C@H]1CC[C@]2(CC1)OOC1(O2)C2CC3CC(C2)CC1C3` (stereo partly drawn) [OZ202], the “Survival (days) 10 mg/kg po” value [1] was 7.0 days, the “Activity (%) 10 mg/kg po” value [1] was 79% and the “Survival (days) 10 mg/kg SSV po” value [1] was 7.3 days. The “Activity (%) 10 mg/kg SSV po” value [1] was 51%, the “Survival (days) 10 mg/kg sc” value [1] was 7.3 days and the “Activity (%) 10 mg/kg sc” value [1] was 74%. It also gave an IC50 [2] of 7.9 ng/mL (≈ 0.0194 µM) and an IC50 [3] of 6 ng/mL (≈ 0.0147 µM).
For `O=C(N1CCCC1)N1CCC2(CC1)OOC1(O2)C2CC3CC(C2)CC1C3` (stereo not drawn) [OZ203, Adamantane-2-spiro-3′-8′-(1′-pyrrolidinylcarbonyl)-1′,2′,4′-trioxa-8′-azaspiro[4.5]decane], the “Survival (days) 10 mg/kg po” value [1] was 7.3 days, the “Activity (%) 10 mg/kg po” value [1] was 87% and the “Survival (days) 10 mg/kg SSV po” value [1] was 8.7 days. The “Activity (%) 10 mg/kg SSV po” value [1] was 99.42%, the “Survival (days) 10 mg/kg sc” value [1] was 9.7 days and the “Activity (%) 10 mg/kg sc” value [1] was 99.72%. For the same molecule, the IC50 [2] was 6.7 ng/mL (≈ 0.0185 µM) and the IC50 [3] was 3.9 ng/mL (≈ 0.0108 µM).
`COC(=O)c1ccc(C[C@H]2CC[C@]3(CC2)OOC2(O3)C3CC4CC(C3)CC2C4)cc1` (stereo partly drawn) [OZ204] was tested, and the “Survival (days) 10 mg/kg po” value [1] was 6.0 days, the “Activity (%) 10 mg/kg po” value [1] was 0/0/0% and the “Survival (days) 10 mg/kg SSV po” value [1] was 6.3 days. For the same molecule, the “Activity (%) 10 mg/kg SSV po” value [1] was 0/0/0%, the “Survival (days) 10 mg/kg sc” value [1] was 6.0 days and the “Activity (%) 10 mg/kg sc” value [1] was 0/0/0%. For the same molecule, the IC50 [2] was > 10 ng/mL and the IC50 [3] was > 10 ng/mL.
With `O=C1CNC(=O)N1C[C@H]1CC[C@]2(CC1)OOC1(O2)C2CC3CC(C2)CC1C3` (stereo partly drawn) [OZ206] the “Survival (days) 10 mg/kg po” value [1] was 8.0 days, the “Activity (%) 10 mg/kg po” value [1] was 93% and the “Survival (days) 10 mg/kg SSV po” value [1] was 8.7 days. The “Activity (%) 10 mg/kg SSV po” value [1] was 92%, the “Survival (days) 10 mg/kg sc” value [1] was 9.7 days and the “Activity (%) 10 mg/kg sc” value [1] was 91%. It also gave an IC50 [2] of 2.7 ng/mL (≈ 0.00717 µM) and an IC50 [3] of 1 ng/mL (≈ 0.00266 µM).

Source: patent publication US6825230B2, “Spiro and dispiro 1,2,4-trixolane antimalarials” (Medicines for Malaria Venture MMV, priority 2002, dated 2004)
